Data from PubChem BioAssay AID602296 (Broad Institute, 2012).
Results filed as inconclusive are left out. Active and inactive are the calls of the source.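 How the source made its calls: active means fitted activation curve crossing 40% at a concentration no higher than the sample's top valid tested dose; inconclusive means flat fitted curve at 30% to 70% activation, or poor curve fit; inactive means signal decrease, flat curve within 30%, or the rest.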

The molecules below were run on NIH3T3-HGL HSF-1 response element luciferase, 48 h (assay: sustained heat shock response element induction – cell-based, mouse, luciferase, cherry-pick, dose, confirmation (AID 602296);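 further: test compounds applied by themselves with no MG132 co-treatment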).

Row | Compound | AC40
1 | COc1ccc(-n2cnnc2SCC(=O)N(C)C2CCS(=O)(=O)C2)cc1 (stereo unspecified) | > 26 µM (inactive)
2 | COc1cccc(/C=N/NC(=S)NC2CC3CC2C2C=CCC32)c1O (stereo unspecified) | > 26 µM (inactive)
3 | CN1CCN(NC(=O)/C=C/c2ccc(Br)cc2)CC1 | > 26 µM (inactive)
4 | N=c1sccn1CC(=O)Nc1cc(Cl)ccc1Oc1ccccc1 | > 26 µM (inactive)
5 | COc1cc(NC(=O)Cc2cccs2)ccc1-n1cnnn1 | > 26 µM (inactive)
6 | CCOC(=O)c1cc(C#N)c(SCc2ccc(C#N)cc2)nc1C | > 26 µM (inactive)
7 | CN(C)C(CNC(=O)CCC(=O)c1ccc(Br)cc1)c1ccccc1 (stereo unspecified) | > 26 µM (inactive)
8 | C=CCn1c(O)c(C(CC)=Nc2ccc3c(c2)CCC3)c(=O)[nH]c1=O | > 12 µM (inactive)
9 | COc1ccc(/C=C\c2nc(=O)c3ccccc3o2)cc1 | > 26 µM (inactive)
10 | Cc1ccccc1/[N+]([O-])=C/c1cccs1 | > 26 µM (inactive)
11 | COc1ccc(C2/C=C\CN(S(=O)(=O)/C=C/c3ccccc3)[C@H](Cc3ccccc3)C(=O)N2Cc2ccc(F)cc2)cc1 (stereo partly specified) | > 26 µM (inactive)
12 | Cc1c(Cl)ccc2c1NC(=O)C21NC(CCC(N)=O)[C@H]2C(=O)N(c3ccc(Cl)cc3)C(=O)[C@H]21 (stereo partly specified) | > 12 µM (inactive)
13 | CC(C)(CNC(=O)/C=C/c1ccc(F)cc1)CNC(=O)/C=C/c1ccc(F)cc1 | > 26 µM (inactive)
14 | C/C(=N\OC(=O)c1ccc(F)cc1)c1ccc(F)c(F)c1 | 24.7 µM
15 | S=C1NC(c2ccccc2)=NCN1c1ccc(Br)cc1 | 8.41 µM
16 | COc1ccc(-c2nc(C#N)c(N3CCCCC3)o2)cc1 | > 26 µM (inactive)
17 | NC(CSCc1cccc(Br)c1)C(=O)O (stereo unspecified) | > 26 µM (inactive)
18 | C[C@]12CC[C@@H]3c4cc(O)c(O)cc4CC[C@H]3[C@@H]1CC[C@@H]2O | 25.2 µM
19 | O=c1/c(=C/c2ccccc2)sc2nnc(-c3cccs3)n12 | > 26 µM (inactive)
20 | COC(=O)CC1C(=O)NCCN1C(=O)c1ccc(S(=O)(=O)N2CCOCC2)cc1 (stereo unspecified) | > 26 µM (inactive)
21 | CCOC(=S)SCC(=O)Nc1nc(C)c(C)s1 | 12.4 µM
22 | CSc1ccc(/C=N\Nc2nncn2N)cc1 | > 26 µM (inactive)

Row | Compound | AC40
23 | Cc1ccc(O)c(NC(=O)c2onc(C)c2Cl)c1 | > 26 µM (inactive)
24 | O=c1[nH]c2ccccc2n1CCC1CCCCC1 | 5.36 µM
25 | COc1cc(OC)cc(-c2nnc(Sc3ccc(C=O)cc3[N+](=O)[O-])o2)c1 | > 26 µM (inactive)
26 | CCSc1nnc(NC(=O)c2cccnc2Cl)s1 | 6.92 µM
27 | O=c1c2cc(N3CCOCC3)ccc2[nH]c(=S)n1Cc1ccccn1 | 23.5 µM
28 | Cc1ccc(C(=O)NC(=C(Cl)Cl)S(=O)(=O)c2ccc(Cl)cc2)cc1 | 8.29 µM
29 | CCCn1c(SCc2nc3sc(C)c(C)c3c(=O)[nH]2)nc2ccccc2c1=O | > 26 µM (inactive)
30 | Cc1cccc(N=Nc2c(C)c(C#N)c(O)[nH]c2=O)c1 | > 26 µM (inactive)
31 | Nc1nc(SCC(=O)Nc2ccc([N+](=O)[O-])cc2Br)n[nH]1 | > 26 µM (inactive)
32 | Cn1c2ccc(F)cc2c2ncn(CCN3CCOCC3)c(=O)c21 | > 26 µM (inactive)
33 | CC1CC(C)(C)N(C(=O)NC2CCCCC2)c2ccccc21 (stereo unspecified) | 12.9 µM
34 | CN(C)c1nc(N)nc(CSc2nnnn2-c2ccc(F)cc2)n1 | > 26 µM (inactive)
35 | COC(=O)C(C)Sc1ncnc2c1nnn2-c1ccc(F)cc1 (stereo unspecified) | 5.57 µM
36 | Cc1ccc(S(=O)(=O)N(CC(=O)NCc2ccco2)Cc2ccc(F)cc2)cc1 | > 26 µM (inactive)
37 | CCN(/N=C/C=C/c1ccccc1)c1cc(=O)n(C)c(=O)[nH]1 | > 26 µM (inactive)
38 | NC(=O)CSC1=N/C(=C\c2ccco2)C(=O)N1c1ccc(OC(F)F)cc1 | 8.11 µM
39 | COC(=O)c1cnc(N2CCCN(S(=O)(=O)c3ccc(C(F)(F)F)cc3)CC2)nc1C(F)(F)F | > 26 µM (inactive)
40 | O=C(CSc1nccn(-c2ccc(F)c(F)c2)c1=O)NC1CCCC1 | > 26 µM (inactive)
41 | CC(C)OC(=O)c1ccc(COc2ccc3ccc(=O)oc3c2)o1 | 3.16 µM
42 | CCc1nc(SCC(=O)c2ccc(Cl)s2)c2oc3ccccc3c2n1 | 18.6 µM
43 | COC(=O)C1NN=C(C(=O)c2ccc(Cl)cc2)C1c1ccc(OC)cc1 (stereo unspecified) | > 26 µM (inactive)
44 | Cc1ccc(C(=O)OCC(=O)c2ccc(Cl)s2)s1 | 15.1 µM

Row | Compound | AC40
45 | COc1ccc(/C=C/C(=O)OC2CCCN(C)C2)cc1 (stereo unspecified) | 12.6 µM
46 | COc1ccc(C(=O)NCC(=O)OCC(=O)c2ccc3c(c2)NC(=O)CO3)cc1 | > 26 µM (inactive)
47 | CCOC(=O)/C=C(\C)Nc1cc(C)nn1-c1ccccc1 | 17.2 µM
48 | CC1(C)CC(=O)C(=Cc2cn(-c3ccccc3)nc2-c2ccccc2)C(=O)C1 | 14 µM
49 | Oc1ccc(NC(=S)Nc2ccccc2)cc1 | > 26 µM (inactive)
50 | Cc1ncc([N+](=O)[O-])n1CCOC(=O)c1cc(Cl)cc(Cl)c1N | > 26 µM (inactive)
51 | O=C(NCc1ccccc1)c1c(Cl)nc(Cl)c(Cl)c1Cl | > 26 µM (inactive)
52 | NC(=O)c1c(NC(=O)Cc2ccccc2)sc2c1CCN(Cc1ccccc1)C2 | > 26 µM (inactive)
53 | COc1ccc(C(=O)Cn2c(C(=O)/C=C/c3ccccc3)nc3ccccc32)cc1 | 2.39 µM
54 | CCC1CCCCN1C(=O)COC(=O)c1cc2ccccc2cc1O (stereo unspecified) | > 26 µM (inactive)
55 | COC(=O)[C@@H](Cc1c[nH]c2ccccc12)NC(=O)c1ccc2c(c1)OCO2 | 3.28 µM
56 | CCOC(=O)/C(=N/Nc1ccc(Cl)cc1)Sc1nnnn1-c1ccc(C)cc1 | > 12 µM (inactive)
57 | CCOC(=O)c1sc2nc(C)nc(SCC(=O)NC3CCS(=O)(=O)C3)c2c1C (stereo unspecified) | > 26 µM (inactive)
58 | O=C(CC(c1ccco1)S(=O)(=O)c1ccccc1)c1ccc(F)cc1 (stereo unspecified) | > 26 µM (inactive)
59 | Cc1csc2nc(CCNS(=O)(=O)c3cccs3)cn12 | 2.76 µM
60 | CCCCC(=O)OCC(=O)c1[nH]c(C)c(C(=O)OCC)c1C | 7.5 µM
61 | Cc1ccccc1OCCCC(=O)Nc1ccccc1C(F)(F)F | > 26 µM (inactive)
62 | CN1CCC(=NNc2ccc(S(=O)(=O)N3CCOCC3)cc2[N+](=O)[O-])CC1 | > 26 µM (inactive)
63 | C=CCC(NCc1ccco1)c1ccc(OC)c(OC)c1 (stereo unspecified) | > 26 µM (inactive)
64 | COc1cc2c(cc1OC)C(CCc1ccccc1)=NCC2 | > 26 µM (inactive)
65 | COC(=O)c1ccc(C(=O)OC)c(NC(=O)C(C)(C)C)c1 | > 26 µM (inactive)
66 | COc1ccc(-c2c(C)c3cc(O)ccc3oc2=O)cc1OC | > 26 µM (inactive)

Row | Compound | AC40
67 | COC(=O)c1nnn(CC(=O)NC(=O)Nc2ccc(F)cc2)c1C(=O)OC | > 26 µM (inactive)
68 | Cc1nc2ccc(Br)cc2c(=O)n1Cc1cccs1 | > 26 µM (inactive)
69 | CNC(=O)C1CC(=O)N(c2ccc(OCC(=O)N3CCCC3)cc2)C1 (stereo unspecified) | > 26 µM (inactive)
70 | COc1cc(/C=N/N2C(=O)c3ccccc3NC2(C)c2cccc([N+](=O)[O-])c2)cc(Br)c1O (stereo unspecified) | > 26 µM (inactive)
71 | O=C(Nc1ccc(Br)cn1)c1ccc([N+](=O)[O-])o1 | > 26 µM (inactive)
72 | O=C(O)c1csc(N/N=C/c2ccc(Br)cc2)n1 | > 26 µM (inactive)
73 | Cn1c(CCCOc2ccc(Cl)cc2Cl)nnc1SCC(=O)Nc1cccc(F)c1 | 20.2 µM
74 | COc1ccc(C2(C)NC(=O)N(CC3CCCCC3)C2=O)cc1 (stereo unspecified) | > 26 µM (inactive)
75 | C/C(Cn1cnc([N+](=O)[O-])n1)=N\NC(=O)c1ccccc1F | 2.7 µM
76 | Cc1ccc(=O)n(C(C(=O)NCc2ccco2)C(=O)c2ccc(F)cc2)c1 (stereo unspecified) | > 26 µM (inactive)
77 | CC1=Nc2cc(C(=O)O)ccc2Sc2c(C)ccc(C)c21 | > 26 µM (inactive)
78 | Brc1cnc2nc(SC/C=C/c3ccccc3)[nH]c2c1 | 20.8 µM
79 | Cc1occc1C(=O)NNS(=O)(=O)c1ccc([N+](=O)[O-])cc1 | > 26 µM (inactive)
80 | C/C(=N\NC(=O)c1cccc(N/N=C(\C)c2cc(O)ccc2O)c1)c1cc(O)ccc1O | > 12 µM (inactive)
81 | O=C(CSCc1ccc(Br)cc1)N1CCCC1 | 11.3 µM
82 | C/C(=N\NC(=O)c1ccoc1C)c1cccc2ccccc12 | 10.2 µM
83 | CCCCOc1ccc(-c2nc(/C=N/c3nccs3)c(O)o2)cc1 | 18.4 µM
84 | COC(=O)c1ccc(CSc2ncnc3c2oc2ccccc23)o1 | > 26 µM (inactive)
85 | CCOC(=O)c1c(C)c(C(=O)Nc2ccc3c(c2)OCO3)c(C)n1C | 24.1 µM
86 | COc1ccc(C)cc1-n1c(=O)c2ccccc2c2ccccc2c1=O | > 26 µM (inactive)
87 | CN(C)C(=O)c1ccc(=O)n(Cc2ccc(Cl)cc2Cl)c1 | > 26 µM (inactive)
88 | Cc1ccc(-c2csc(NC(=O)c3cccc([N+](=O)[O-])c3)n2)cc1 | > 26 µM (inactive)

Row | Compound | AC40
89 | OC(CNCc1cccc(Cl)c1)c1ccccc1 (stereo unspecified) | 24.8 µM
90 | O=C(CSc1nnc(-c2c[nH]c3ccccc23)n1-c1ccc(F)cc1)NCc1ccco1 | 13.5 µM
91 | Cc1ccccc1CC1(CO)CCCN(C(=O)c2ccccc2Cl)C1 (stereo unspecified) | > 26 µM (inactive)
92 | COc1cc2nc(CSc3nc(-c4ccc(F)cc4)cs3)[nH]c(=O)c2cc1OC | > 26 µM (inactive)
93 | COCCCN(CC(=O)O)S(=O)(=O)c1cccc(Cl)c1 | > 26 µM (inactive)
94 | COc1cccc(Sc2ccccc2/C=N/NC(N)=O)c1 | > 26 µM (inactive)
95 | C/C(CC(=O)Nc1cccc2c1CCCC2)=N\NC(=O)COc1ccccc1 | > 26 µM (inactive)
96 | CCOc1ccccc1CNCCN1CCOCC1 | > 26 µM (inactive)
97 | CN(CCC1CCCCO1)C(=O)CCc1nnc(CCCCc2ccccc2)o1 (stereo unspecified) | 5.66 µM
98 | CC(C)(C)c1[nH]ncc1[N+](=O)[O-] | > 26 µM (inactive)
99 | Cc1ccc(CC2SC(N=C(N)N)=NC2=O)cc1 (stereo unspecified) | > 26 µM (inactive)
100 | COCCCNCCOc1ccc(C)cc1[N+](=O)[O-] | > 26 µM (inactive)
101 | COc1ccc(-c2coc3cc4oc(=O)c(CC(=O)O)c(C)c4cc23)cc1 | > 26 µM (inactive)
102 | O=C(N/N=C/CCc1ccccc1)c1ccccc1 | 15.5 µM
103 | Cc1ccc(-c2nn(-c3cc(Cl)ccc3[N+](=O)[O-])c(=O)c3ccccc23)cc1 | > 26 µM (inactive)
104 | S=c1[nH]nc(-c2ccccc2)n1/N=C/c1ccc(-c2ccccc2Cl)o1 | > 12 µM (inactive)
105 | O=C(NC1CCCCC1)C1CCCN1S(=O)(=O)c1cccc2nsnc12 (stereo unspecified) | > 26 µM (inactive)
106 | COC(=O)c1ccc(OC(=O)CCN2C(=O)C3CCCCC3C2=O)cc1 (stereo unspecified) | > 26 µM (inactive)
